Data: patent US12612411B1, “Imidazopyrazine derivatives, process for preparation thereof, and their uses as luciferins” (INSTITUT PASTEUR, priority 2017, dated 2026)

Molecular target: T1, nanoKAZ (Oplophorus gracilirostris, UniProt Q9GV45, A31E/A60N/A81I/F95D/I117V/K70R/L54V/L99Q/M102K/N193R/P142E/Q151K/Q38R/Q45L/V71I/Y165I)
T1 construct: luciferase catalytic domain (nanoKAZ, 19 kDa) from the Oplophorus-derived luciferase
Assay: Michaelis-Menten parameters of nanoKAZ from Lineweaver-Burk representation
Format: biochemical
Conditions: extrapolated from Lineweaver-Burk, constant enzyme concentration
Description: The two dotted lines (linear regression) are converging to the same intercept with the x-axis (−1/Km) and different intercepts with the y-axis (1/Vmax). The equations of the two linear regressions are indicated and the corresponding correlation factors (R^2) with the experimental data are reported.
Considering the hypothesis of a Michaelis-Menten mechanism for the nanoKAZ, the Km and Vmax were extrapolated from the Lineweaver-Burk representation of the enzyme activity catalyzing either Q-1 or Q-3. […] The data have been fitted with linear regression with satisfying high correlation factors (R). The Km are the same for both substrates (Km=2 μM) whereas the Vmax is 3-times lower for Q-1 (0.6·10^6 RLU/sec) than for Q-3 (2.0·10^6 RLU/sec).

T1 sequence (Q9GV45 other isoform, or with tags, fused parts or gaps with the stated changes): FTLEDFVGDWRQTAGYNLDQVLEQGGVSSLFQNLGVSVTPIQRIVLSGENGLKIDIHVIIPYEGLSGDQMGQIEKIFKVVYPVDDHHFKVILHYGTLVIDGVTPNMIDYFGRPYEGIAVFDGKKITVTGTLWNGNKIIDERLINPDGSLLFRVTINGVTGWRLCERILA

| Structure (SMILES) | Km [µM] |
| --- | --- |
| O=c1c(Cc2ccco2)nc2c(Cc3ccccc3)[nH]c(-c3ccccc3)cn1-2 [Q-1, 8-benzyl-2-(furan-2-ylmethyl)-6-phenylimidazo[1,2-a]pyrazin-3(7H)-one, reference compound] | 2 |
| Cc1ccc(Cc2nc3c(Cc4ccccc4)[nH]c(-c4ccccc4)cn-3c2=O)o1 [Q-3, 8-benzyl-2-((5-methylfuran-2-yl)methyl)-6-phenylimidazo[1,2-a]pyrazin-3(7H)-one] | 2 |
